# Laboratory results published in US4221805A, “Method of inducing platelet antiaggregation activity” (priority 1978, dated 1980).
# Entries after “also recorded” stand apart in the source; their conditions may differ.
# Assays:
# stomach (gastric lesion) = assay: Ulcerogenic activity in rats after a single administration; type: in vivo, male albino rats, Wistar strain; conditions: rats; for Average degree of lesion + E.E.: scale 0-7, controls 0.65 ± 0.1
# Method: The ulcerogenic activity of MRAP2 was tested both after a single administration of the drug, and after prolonged administration.
# In these tests, a total of 70 male albino rats of Wistar strain were used, having a weight of 200±20 grams.
# The MRAP2 was administered diluted in tap water.
# 40 rats, fasted for 18 hours before the experiment, were divided into four batches of ten animals and treated orally as follows:
# 3rd group: MRAP2 (50 mg/kg)
# 4th group: MRAP2 (125 mg/kg).
# The animals were killed after six hours. The stomach was withdrawn and the gastric lesion index was evaluated in terms of an arbitrary scale of values lying between 0. and 7 based on previous models proposed by other authors.
# Furthermore, the treatment was randomised in order to eliminate any possible polarisation of the data.
# The points given for gastric ulcerative lesions were as follows:
# (1) hyperaemia or slight capillary obstruction; or slight loss of the epithelium; or some petechiae even with pale mucosa without hyperaemia;
# (2) diffuse capillary obstructions or numerous petechiae; or diffuse loss of the epithelium; of a few surface lesions;
# (3) strong submucosa haemorrhage; or many petechiae and small surface lesions; or much anaemic mucosa (yellowish colour); or up to three small ulcers;
# (4) general pattern as in the previous numbers, plus up to ten small ulcers; or long erosions; or up to three medium sized ulcers;
# (5) pattern as in number 4, with up to 15 small ulcers; or up to 6 large ulcers;
# (6) pattern as previously, with up to ten large ulcers, plus small ulcers;
# (7) pattern as previously, plus up to ten large ulcers and small ulcers; cases of perforated ulcers.
# [1] = Acute toxicity in mice, endoperitoneal administration (LD50); type: in vivo; conditions: mouse, in vivo, ip
# Method: (§1) A total of 240 albino mice, 120 male and 120 female, of the Swiss strain and having an average weight of about 20 grams were used. The animals were divided into groups of 10 animals each, and kept caged for some days in an environment at a constant temperature (21°±1° C.) and humidity (60±5%). They were then fasted for 24 hours before the experiment, but were given free access to water.
# (§2) The substance indicated by MRAP2 was administered, in a single administration, either orally or endoperitoneally. The LD50 was evaluated for each of the administration methods, using the method of Litchfield and Wilcoxon, J.Pharmacology, 96, 99, […], based on the mortality recorded for each group of mice over the seven days following administration.
# (§3) Six groups of 20 animals, 10 male and 10 female, which had been given the active principle dissolved in a physiological solution were used.
# mice [2] = assay: as above; type: in vivo; conditions: 20 animals per dose
# Method: as §1, §2, §3
# [3] = system: human PRP (Platelet Rich Plasma), platelet aggregation induced by ADP; assay: In vitro platelet antiaggregation activity (Born method, ADP-induced); type: cell-based
# Method: The method described by Born (Nature, 194, 927, 1962) was followed for this test, based on the increase in the platelet aggregation induced by ADP. The experiment was conducted using a human PRP (Platelet Rich Plasma) pool from four healthy volunteers who had not taken any drugs for ten days. The PRP was adjusted to 280,000±20,000 and kept at ambient temperature for the entire duration of the test.
# 400 μl of PRP and 100 μl of MRAP2 dissolved in a physiological solution and adjusted to a pH of 7.4 were placed in plastic test tubes. Three doses of the drug in question (0.181, 0.904 and 1.818 mg/ml) were used.
# Three dilutions of aspirin were prepared under the same conditions for use as a comparison drug. Two minutes after contact between the drug and PRP, the test tube was inserted into the aggregometer cell (EEI, Model 169 with Corning Recorder Mod.840). After 60 seconds, ADP (10^-3 mM) was added and the aggregation was recorded. In calculating the antiaggregation activity, reference was made to the maximum amplitude of the aggregation curved obtained with ADP. Assuming this amplitude to be 100, the amplitudes of the curves obtained with the various doses of MRAP2 and aspirin were calculated as a percentage.
# [4] = Acute toxicity in mice, oral administration (LD50); type: in vivo; conditions: mouse, in vivo
# Method: as §1, §2
# (§4) Six groups of 20 animals, 10 male and 10 female, which had been given MRAP2 dissolved in tap water were used, the method utilised being gastric catheterisation.
# mice [5] = assay: Acute toxicity in mice, oral administration (LD50); type: in vivo; conditions: 20 animals per dose
# Method: as §1, §2, §4
# platelet aggregation = assay: In vivo platelet antiaggregation activity; set-up: species or system male rats, Wistar strain; conditions: rats
# Method: This experiment was carried out on male rats of the Wistar strain having a weight of 320±20 grams. Both the MRAP2 and the aspirin (used as a comparison drug) were dissolved in a physiological solution, and the solutions, adjusted to pH 7.4, were administered orally in doeses of 3 mg/kg to two groups of three rats each. […] The concentration of the solution was adjusted to contain 100 mg of MRAP2 per ml. Blood samples were drawn from each animal 72 and 120 hours after treatment, for checking the platelet aggregation. In calculating the activity, the previous method was used (the average of the three maximum amplitudes of the curves obtained with the untreated rats was given the control figure of 100%).
smiles,measurement,setting,value
"Cl.Clc1ccccc1CN1CCCC1 [MRAP2, N-(2-chlorobenzyl)-pyrrolidine hydrochloride]",Average degree of lesion + E.E.,stomach (gastric lesion); single oral 50 mg/kg,0.80 ± 0.1
same,Average degree of lesion + E.E.,"stomach (gastric lesion); single oral 125 mg/kg, P <0.05 with regard to controls",1.15 ± 0.2
same,incidence of ulcerative lesions (in words),"stomach (gastric lesion); single oral administration, relative to control animals",almost identical or slightly greater than that of the control animals
same,mortality at 168 h,[1]; 75 mg/kg,0%
same,mortality at 168 h,[1]; 100 mg/kg,10%
same,mortality at 168 h,[1]; 150 mg/kg,90%
same,mortality at 168 h,[1]; 200 mg/kg,100%
same,mortality at 168 h,[1]; 300 mg/kg,100%
same,mortality at 168 h,[1]; 400 mg/kg,100%
same,LD50 at 168 h,"[1]; single administration, 7 days, 95% limits 105-130",116 mg/kg
same,No. of animals dead,mice [2]; 75 mg/kg,0
same,No. of animals dead,mice [2]; 100 mg/kg,2
same,No. of animals dead,mice [2]; 150 mg/kg,18
same,No. of animals dead,mice [2]; 200 mg/kg,20
same,No. of animals dead,mice [2]; 300 mg/kg,20
same,No. of animals dead,mice [2]; 400 mg/kg,20
same,inhibition of platelet aggregation at 181 µg/mL,"[3]; Platelet, ADP 10^-3 mM, drug 0.181 mg/ml",26%
same,activity at 181 µg/mL,"[3]; Platelet, ADP 10^-3 mM, drug 0.181 mg/ml, serum + ADP = 100",74%
same,inhibition of platelet aggregation at 904 µg/mL,"[3]; Platelet, ADP 10^-3 mM, drug 0.904 mg/ml",91%
same,activity at 904 µg/mL,"[3]; Platelet, ADP 10^-3 mM, drug 0.904 mg/ml, serum + ADP = 100",9%
same,inhibition of platelet aggregation at 1818 µg/mL,"[3]; Platelet, ADP 10^-3 mM, drug 1.818 mg/ml",92%
same,activity at 1818 µg/mL,"[3]; Platelet, ADP 10^-3 mM, drug 1.818 mg/ml, serum + ADP = 100",8%
same,platelet antiaggregation activity (in words),"[3]; in vitro, ADP, manifested by the dose of 0.904 mg/ml, comparison with aspirin, hydrochloride",considerable platelet antiaggregation activity; also recorded: clearly superior to that possessed by aspirin
same,mortality at 168 h,[4]; 300 mg/kg,0%
same,mortality at 168 h,[4]; 400 mg/kg,20%
same,mortality at 168 h,[4]; 500 mg/kg,45%
same,mortality at 168 h,[4]; 600 mg/kg,60%
same,mortality at 168 h,[4]; 800 mg/kg,100%
same,mortality at 168 h,[4]; 1000 mg/kg,100%
same,LD50 at 168 h,"[4]; single administration, 7 days, 95% limits 515-561",536 mg/kg
same,No. of animals dead,mice [5]; 300 mg/kg,0
same,No. of animals dead,mice [5]; 400 mg/kg,4
same,No. of animals dead,mice [5]; 500 mg/kg,9
same,No. of animals dead,mice [5]; 600 mg/kg,12
same,No. of animals dead,mice [5]; 800 mg/kg,20
same,No. of animals dead,mice [5]; 1000 mg/kg,20
same,antiaggregation activity in vivo (in words),"platelet aggregation; oral 3 mg/kg, comparison with aspirin",superior to that of aspirin
same,% platelet antiaggregation activity on day 3,"platelet aggregation; single oral dose 3 mg/kg, day 3 (72 hours)",38%
same,% platelet aggregation on day 3,"platelet aggregation; single oral dose 3 mg/kg, day 3 (72 hours), controls = 100",62%
same,% platelet antiaggregation activity on day 5,"platelet aggregation; single oral dose 3 mg/kg, day 5 (120 hours)",37%
same,% platelet aggregation on day 5,"platelet aggregation; single oral dose 3 mg/kg, day 5 (120 hours), controls = 100",63%
